Experimental data from paper PMC4718634, “Murine GPRC6A Mediates Cellular Responses to L-Amino Acids, but Not Osteocalcin Variants” (PLoS ONE, 2016).
Entries after “also recorded” stand apart in the source; their conditions may differ. Where two headings read alike, the source gives them in different places.

Tests used:
[1] = test system: mC6A; conditions: cited from earlier work
Source text: Supplement pone.0146846.s004.docx, table 1 | column: Functional assay

[2] = test system: GLUTag cells; experiment: GLP-1 release from GLUTag cells; type: cell-based, murine; conditions: for GLP-1 release (summary): S1 Table
How it was run: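 Matrigel-grown cells, where indicated pre-washed in Krebs-HEPES pH 7.2 with 5.5 mM glucose and 300 μM vildagliptin, were exposed to compound for 2 h at 37 °C. Secreted GLP-1 was measured by fluorescent ELISA (355/460 nm) and normalised to Bradford protein. LogEC50 values came from 3- or 4-parameter logistic fits.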

[3] = test system: MIN6 cells; experiment: Insulin release from MIN6 cells; type: cell-based, murine
How it was run: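 After 72 h culture and 2 h glucose-free deprivation, cells exposed to compound for 2 h at 37°C in Krebs buffer pH 7.4 with 2 mM or 16.7 mM glucose. Secreted insulin measured by ELISA, normalised to vehicle at matching glucose; LogEC50 from three- or four-parameter logistic fit.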

## NCCC[C@H](N)C(=O)O [L-ornithine]
[1]; ref [3] (supplement list)
  cAMP response: [^3H]IP turnover - co-transfection with Gαqs5, GαqG66D, Gαq or GαqG66Ds5 enabled response to L-aa but Gαqi, Gαqz, Gαqo did not cAMP – no increase or decrease in response to L-Orn
[1]; ref [13] (supplement list)
  cAMP response: no response
  pERK response: response
[2]; L-ornithine 20 mM, 2 h, 37°C, cells washed, **P < 0.01 vs Vehicle, ELISA, Fig 6A
  GLP-1 release: significantly increases GLP-1 release; also recorded: L-ornithine stimulated GLP-1 release
[2]
  GLP-1 release (summary): response
[3]; L-ornithine 20 mM, 16.7 mM glucose, P < 0.01 vs Vehicle, 2 h, ELISA, Fig 6B
  glucose-sensitive insulin secretion: significantly increased glucose-sensitive insulin secretion; also recorded: could be increased by L-ornithine

## OCN: osteoblast-derived peptide, osteocalcin; variant not specified at the place (YLYQWLGAPVPYPDPLEPRREVCELNPDCDELADHIGFQEAYRRFYGPV; UniProt P02818 52-100, looked up)
[1]; + GqG66D, ref [13] (supplement list)
  IP-One HTRF response to EC25 L-Orn + OCN: No response
[1]; ref [5] (supplement list)
  cAMP accumulation response: cAMP accumulation in response to OCN
[1]; ref [13] (supplement list)
  IP-One HTRF response: No response
  cAMP response: no response
  pERK response: No specific response
[2]; 0.01–10 ng/ml, with or without cell washing, 2 h, Fig 6A
  GLP-1 release, OCN: failed to increase GLP-1 release
[2]
  GLP-1 release (summary): No response
[3]; mouse OCN 0.03–30 ng/mL, 0.03–100 ng/mL (Fig 6B legend), low and high glucose
  insulin secretion, OCN: failed to induce GSIS
